Data taken from patent US6376426B1, “Herbicidal 3-(heterocycl-1-yl)-uracils” (BASF Aktiengesellschaft, priority 1999, dated 2002).

Legend:
Type in all cases: in vivo
[1] = test system: Triticum aestivum; experiment: Pre-emergence herbicidal test, TRZAW; details: 21 days after spraying
Procedure: (§1) To evaluate their herbicidal activity, compounds according to the invention are tested using a representative range of plants:
(§2) The pre-emergence tests involve spraying a liquid formulation of the compound onto the soil in which the seeds of the plant species mentioned above has recently been sown.
(§3) The soil used in the tests is a prepared horticultural loam. The formulations used in the tests are prepared from solutions of the test compounds in acetone containing 0.4% by weight of an alkylphenol/ethylene oxide condensate available under the trade mark TRITON X-155. […] In these tests untreated sown soil are used as controls.
(§4) The herbicidal effects of the test compounds are assessed visually twenty-one days after spraying the foliage and the soil and are recorded on a 0-9 scale. A rating 0 indicates growth as untreated control, a rating 9 indicates death. An increase of 1 unit on the linear scale approximates to a 10% increase in the level of effect.

[2] = test system: Galium aparine; experiment: Pre-emergence herbicidal test, GALAP; parameters: key to herbicidal effect (0-9 scale) GALAP / herbicidal rating GALAP: A rating 0 indicates growth as untreated control; a rating 9 indicates death; details: PRE, 21 days after spraying
Procedure: as §1, §2, §3, §4

[3] = test system: Echinochloa crus-galli; experiment: Post-emergence herbicidal test, ECHCG; parameters: key: A rating 0 indicates growth as untreated control; a rating 9 indicates death; details: 21 days after spraying
Procedure: as §1
(§5) […] After spraying, the plants are placed on greenhouse benches and are cared for in the usual manner, commensurate with conventional greenhouse practices.
as §4

[4] = test system: Triticum aestivum; experiment: Post-emergence herbicidal test, TRZAW; details: POST, 21 days after spraying
Procedure: as §1, §5, §4

[5] = test system: Echinochloa crus-galli; experiment: Pre-emergence herbicidal test, ECHCG; details: 21 days after spraying
Procedure: as §1, §2, §3, §4

[6] = test system: Ipomoea hederacea; experiment: Post-emergence herbicidal test, IPOHE; parameters: key to herbicidal effect (0-9 scale) IPOHE / herbicidal rating IPOHE: A rating 0 indicates growth as untreated control; a rating 9 indicates death; details: POST, 21 days after spraying
Procedure: as §1, §5, §4

[7] = test system: Abutilon theophrasti; experiment: Post-emergence herbicidal test, ABUTH; parameters: key to herbicidal effect (0-9 scale) ABUTH / herbicidal rating ABUTH: A rating 0 indicates growth as untreated control; a rating 9 indicates death; details: POST, 21 days after spraying
Procedure: as §1, §5, §4

[8] = test system: Stellaria media; experiment: Pre-emergence herbicidal test, STEME; parameters: key to herbicidal effect (0-9 scale) STEME / herbicidal rating STEME: A rating 0 indicates growth as untreated control; a rating 9 indicates death; details: PRE, 21 days after spraying
Procedure: as §1, §2, §3, §4

[9] = test system: Abutilon theophrasti; experiment: Pre-emergence herbicidal test, ABUTH; parameters: key to herbicidal effect (0-9 scale) ABUTH / herbicidal rating ABUTH: A rating 0 indicates growth as untreated control; a rating 9 indicates death; details: PRE, 21 days after spraying
Procedure: as §1, §2, §3, §4

[10] = test system: Matricaria inodora; experiment: Post-emergence herbicidal test, MATIN; parameters: key to herbicidal effect (0-9 scale) MATIN / herbicidal rating MATIN: A rating 0 indicates growth as untreated control; a rating 9 indicates death; details: POST, 21 days after spraying
Procedure: as §1, §5, §4

[11] = test system: Alopecurus myosuroides; experiment: Post-emergence herbicidal test, ALOMY; parameters: key: A rating 0 indicates growth as untreated control; a rating 9 indicates death; details: 21 days after spraying
Procedure: as §1, §5, §4

[12] = test system: Setaria viridis; experiment: Post-emergence herbicidal test, SETVI; parameters: key to herbicidal effect (0-9 scale) SETVI / herbicidal rating SETVI: A rating 0 indicates growth as untreated control; a rating 9 indicates death; details: POST, 21 days after spraying
Procedure: as §1, §5, §4

[13] = test system: Stellaria media; experiment: Post-emergence herbicidal test, STEME; parameters: key to herbicidal effect (0-9 scale) STEME / herbicidal rating STEME: A rating 0 indicates growth as untreated control; a rating 9 indicates death; details: POST, 21 days after spraying
Procedure: as §1, §5, §4

[14] = test system: Setaria viridis; experiment: Pre-emergence herbicidal test, SETVI; parameters: key to herbicidal effect (0-9 scale) SETVI / herbicidal rating SETVI: A rating 0 indicates growth as untreated control; a rating 9 indicates death; details: PRE, 21 days after spraying
Procedure: as §1, §2, §3, §4

[15] = test system: Ipomoea hederacea; experiment: Pre-emergence herbicidal test, IPOHE; details: 21 days after spraying
Procedure: as §1, §2, §3, §4

[16] = test system: Hordeum vulgare; experiment: Post-emergence herbicidal test, HORVW; details: 21 days after spraying
Procedure: as §1
These acetone solutions are diluted with water and the resulting formulations applied at dosage levels equivalent to about 1000, 800, 400, 250 or 100 g/ha per hectare of test compound per pot. After spraying, the plants are placed on greenhouse benches and are cared for in the usual manner, commensurate with conventional greenhouse practices.
as §4

[17] = test system: Matricaria inodora; experiment: Pre-emergence herbicidal test, MATIN; parameters: key to herbicidal effect (0-9 scale) MATIN / herbicidal rating MATIN: A rating 0 indicates growth as untreated control; a rating 9 indicates death; details: PRE, 21 days after spraying
Procedure: as §1, §2, §3, §4

[18] = test system: Glycine max; experiment: Post-emergence herbicidal test, GLXMA; details: 21 days after spraying
Procedure: as §1, §5, §4

[19] = test system: Galium aparine; experiment: Post-emergence herbicidal test, GALAP; parameters: key to herbicidal effect (0-9 scale) GALAP / herbicidal rating GALAP: A rating 0 indicates growth as untreated control; a rating 9 indicates death; details: POST, 21 days after spraying
Procedure: as §1, §5, §4

[20] = test system: Zea mays; experiment: Post-emergence herbicidal test, ZEAMX; details: 21 days after spraying
Procedure: as §1, §5, §4

[21] = test system: Glycine max; experiment: Pre-emergence herbicidal test, GLXMA; details: PRE, 21 days after spraying
Procedure: as §1, §2, §3, §4

[22] = test system: Zea mays; experiment: Pre-emergence herbicidal test, ZEAMX; details: PRE, 21 days after spraying
Procedure: as §1, §2, §3, §4

[23] = test system: Hordeum vulgare; experiment: Pre-emergence herbicidal test, HORVW; details: 21 days after spraying
Procedure: as §1, §2, §3, §4

## Cn1c(C(F)(F)F)cc(=O)n(-n2ccc3cc([N+](=O)[O-])ccc32)c1=O [Example 4]
[1]; 400 g/ha
  herbicidal effect (0-9 scale) TRZAW: 3
[1]; 800 g/ha
  herbicidal effect (0-9 scale) TRZAW: 6
[2]; 400 g/ha
  herbicidal effect (0-9 scale) GALAP: 9
[2]; 800 g/ha
  herbicidal effect (0-9 scale) GALAP: 9
[3]; 400 g/ha
  herbicidal effect (0-9 scale) ECHCG: 8
[3]; 800 g/ha
  herbicidal effect (0-9 scale) ECHCG: 9
[4]; 400 g/ha
  herbicidal effect (0-9 scale) TRZAW: 4
[4]; 800 g/ha
  herbicidal effect (0-9 scale) TRZAW: 4
[5]; 400 g/ha
  herbicidal effect (0-9 scale) ECHCG: 8
[5]; 800 g/ha
  herbicidal effect (0-9 scale) ECHCG: 8
[6]; 400 g/ha
  herbicidal effect (0-9 scale) IPOHE: 9
[6]; 800 g/ha
  herbicidal effect (0-9 scale) IPOHE: 9
[7]; 400 g/ha
  herbicidal effect (0-9 scale) ABUTH: 9
[7]; 800 g/ha
  herbicidal effect (0-9 scale) ABUTH: 9
[8]; 400 g/ha
  herbicidal effect (0-9 scale) STEME: 9
[8]; 800 g/ha
  herbicidal effect (0-9 scale) STEME: 9
[9]; 400 g/ha
  herbicidal effect (0-9 scale) ABUTH: 9
[9]; 800 g/ha
  herbicidal effect (0-9 scale) ABUTH: 9
[10]; 400 g/ha
  herbicidal effect (0-9 scale) MATIN: 9
[10]; 800 g/ha
  herbicidal effect (0-9 scale) MATIN: 9
[11]; 400 g/ha
  herbicidal effect (0-9 scale) ALOMY: 8
[11]; 800 g/ha
  herbicidal effect (0-9 scale) ALOMY: 9
[12]; 400 g/ha
  herbicidal effect (0-9 scale) SETVI: 9
[12]; 800 g/ha
  herbicidal effect (0-9 scale) SETVI: 9
[13]; 400 g/ha
  herbicidal effect (0-9 scale) STEME: 9
[13]; 800 g/ha
  herbicidal effect (0-9 scale) STEME: 9
[14]; 400 g/ha
  herbicidal effect (0-9 scale) SETVI: 9
[14]; 800 g/ha
  herbicidal effect (0-9 scale) SETVI: 9
[15]; 400 g/ha
  herbicidal effect (0-9 scale) IPOHE: 7
[15]; 800 g/ha
  herbicidal effect (0-9 scale) IPOHE: 8
[16]; 400 g/ha
  herbicidal effect (0-9 scale) HORVW: 5
[16]; 800 g/ha
  herbicidal effect (0-9 scale) HORVW: 6
[17]; 400 g/ha
  herbicidal effect (0-9 scale) MATIN: 9
[17]; 800 g/ha
  herbicidal effect (0-9 scale) MATIN: 9
[18]; 400 g/ha
  herbicidal effect (0-9 scale) GLXMA: 8
[18]; 800 g/ha
  herbicidal effect (0-9 scale) GLXMA: 8
[19]; 400 g/ha
  herbicidal effect (0-9 scale) GALAP: 8
[19]; 800 g/ha
  herbicidal effect (0-9 scale) GALAP: 9
[20]; 400 g/ha
  herbicidal effect (0-9 scale) ZEAMX: 6
[20]; 800 g/ha
  herbicidal effect (0-9 scale) ZEAMX: 8
[21]; 400 g/ha
  herbicidal effect (0-9 scale) GLXMA: 3
[21]; 800 g/ha
  herbicidal effect (0-9 scale) GLXMA: 3
[22]; 400 g/ha
  herbicidal effect (0-9 scale) ZEAMX: 6
[22]; 800 g/ha
  herbicidal effect (0-9 scale) ZEAMX: 8
[23]; 400 g/ha
  herbicidal effect (0-9 scale) HORVW: 5
[23]; 800 g/ha
  herbicidal effect (0-9 scale) HORVW: 7
